According to PubChem BioAssay AID1963420 (Molecular Pharmacology Branch, DTP, NCI, 2024):

System: 494315-158-R-J1-PDC complex spheroid growth, percent test/control
Assay: Anticancer human tumor 494315-158-R-J1-PDC patient-derived soft tissue sarcoma cell line growth inhibition [Asc]
Conditions: for IC50: curve of first compound; for viability, T/C: stronger effect = lower value; active = viability on the fitted dose curve at most 10% of control; inactive = the rest
Procedure, shortened: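 Complex spheroids combining tumor cells with HUVEC endothelial cells and human MSCs, at 37 degrees C, 5% CO2; agents tested alone or combined, half-log dilutions from at or near clinical Cmax, or 10 microM if Cmax unknown.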

[1] = second compound 0.01 µM, first compound 0.00316 µM
[2] = second compound 0.01 µM, first compound 0.01 µM
[3] = second compound 0.01 µM, first compound 0.0316 µM
[4] = second compound 0.01 µM, first compound 0.1 µM
[5] = second compound 0.01 µM, first compound 0.316 µM
[6] = second compound 0.01 µM, first compound 1 µM
[7] = second compound 0.0316 µM, first compound 0.00316 µM
[8] = second compound 0.0316 µM, first compound 0.01 µM
[9] = second compound 0.0316 µM, first compound 0.0316 µM
[10] = second compound 0.0316 µM, first compound 0.1 µM
[11] = second compound 0.0316 µM, first compound 0.316 µM
[12] = second compound 0.0316 µM, first compound 1 µM
[13] = second compound 0.1 µM, first compound 0.00316 µM
[14] = second compound 0.1 µM, first compound 0.01 µM
[15] = second compound 0.1 µM, first compound 0.0316 µM
[16] = second compound 0.1 µM, first compound 0.1 µM
[17] = second compound 0.1 µM, first compound 0.316 µM
[18] = second compound 0.1 µM, first compound 1 µM
[19] = second compound 0.316 µM, first compound 0.00316 µM
[20] = second compound 0.316 µM, first compound 0.01 µM
[21] = second compound 0.316 µM, first compound 0.0316 µM
[22] = second compound 0.316 µM, first compound 0.1 µM
[23] = second compound 0.316 µM, first compound 0.316 µM
[24] = second compound 0.316 µM, first compound 1 µM
[25] = second compound 1 µM, first compound 0.00316 µM
[26] = second compound 1 µM, first compound 0.01 µM
[27] = second compound 1 µM, first compound 0.0316 µM
[28] = second compound 1 µM, first compound 0.1 µM
[29] = second compound 1 µM, first compound 0.316 µM
[30] = second compound 1 µM, first compound 1 µM
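Note: compound exposure lasted seven days after spheroids formed for three days.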

CCN1CCN(Cc2ccc(Nc3ncc(F)c(-c4cc(F)c5nc(C)n(C(C)C)c5c4)n3)nc2)CC1 + CNC(C)C(=O)NC1CN(S(=O)(=O)c2cccc(S(=O)(=O)N3CCC4CCC(C(=O)NC(c5ccccc5)c5ccccc5)N4C(=O)C(NC(=O)C(C)NC)C3)c2)CCC2CCC(C(=O)NC(c3ccccc3)c3ccccc3)N2C1=O
< 3.16 nM: IC50 (second compound 0.316 µM) | IC50 (second compound 1 µM)
inactive: viability, T/C [1] 77.8% | viability, T/C [2] 81.6% | viability, T/C [3] 67% | viability, T/C [4] 64.4% | viability, T/C [5] 67.5% | viability, T/C [6] 63.8% | viability, T/C [7] 56.8% | viability, T/C [8] 63.9% | viability, T/C [9] 68.7% | viability, T/C [10] 52.2% | viability, T/C [11] 57.2% | viability, T/C [12] 53.4% | viability, T/C [13] 55.6% | viability, T/C [14] 57.4% | viability, T/C [15] 48.9% | viability, T/C [16] 58.4% | viability, T/C [17] 57.4% | viability, T/C [18] 48.9% | viability, T/C [19] 51.5% | viability, T/C [20] 46.4% | viability, T/C [21] 50.2% | viability, T/C [22] 43.4% | viability, T/C [23] 51.3% | viability, T/C [24] 52.5% | viability, T/C [25] 36.3% | viability, T/C [26] 39.7% | viability, T/C [27] 44.4% | viability, T/C [28] 41.8% | viability, T/C [29] 45.3% | viability, T/C [30] 48.5%
> 1000 nM: IC50 (second compound 0.01 µM) | IC50 (second compound 0.0316 µM) | IC50 (second compound 0.1 µM)

Cn1ncnc1[C@H]1c2n[nH]c(=O)c3cc(F)cc(c23)N[C@@H]1c1ccc(F)cc1 + CNC(C)C(=O)NC1CN(S(=O)(=O)c2cccc(S(=O)(=O)N3CCC4CCC(C(=O)NC(c5ccccc5)c5ccccc5)N4C(=O)C(NC(=O)C(C)NC)C3)c2)CCC2CCC(C(=O)NC(c3ccccc3)c3ccccc3)N2C1=O
34.3 nM: IC50 (second compound 0.01 µM)
< 0.316 nM: IC50 (second compound 0.316 µM) | IC50 (second compound 1 µM)
inactive: viability, T/C (second compound 0.01 µM, first compound 0.000316 µM) 65.8% | viability, T/C (second compound 0.01 µM, first compound 0.001 µM) 73% | viability, T/C [1] 59.1% | viability, T/C [2] 53.5% | viability, T/C [3] 49.6% | viability, T/C [4] 46.1% | viability, T/C (second compound 0.0316 µM, first compound 0.000316 µM) 56.5% | viability, T/C (second compound 0.0316 µM, first compound 0.001 µM) 59.9% | viability, T/C [7] 50.1% | viability, T/C [8] 36.8% | viability, T/C [9] 38% | viability, T/C [10] 34.1% | viability, T/C (second compound 0.1 µM, first compound 0.000316 µM) 44.1% | viability, T/C (second compound 0.1 µM, first compound 0.001 µM) 53.4% | viability, T/C [13] 49.6% | viability, T/C [14] 32% | viability, T/C [15] 33.4% | viability, T/C [16] 31.2% | viability, T/C (second compound 0.316 µM, first compound 0.000316 µM) 49.9% | viability, T/C (second compound 0.316 µM, first compound 0.001 µM) 38.8% | viability, T/C [19] 33.7% | viability, T/C [20] 29.4% | viability, T/C [21] 27.2% | viability, T/C [22] 26.4% | viability, T/C (second compound 1 µM, first compound 0.000316 µM) 41.1% | viability, T/C (second compound 1 µM, first compound 0.001 µM) 40.1% | viability, T/C [25] 38.5% | viability, T/C [26] 26.9% | viability, T/C [27] 29% | viability, T/C [28] 22.6%
3.18 nM: IC50 (second compound 0.0316 µM)
0.316 nM: IC50 (second compound 0.1 µM)

O=C(c1cc(Cc2n[nH]c(=O)c3ccccc23)ccc1F)N1CCN(C(=O)C2CC2)CC1 + CNC(C)C(=O)NC1CN(S(=O)(=O)c2cccc(S(=O)(=O)N3CCC4CCC(C(=O)NC(c5ccccc5)c5ccccc5)N4C(=O)C(NC(=O)C(C)NC)C3)c2)CCC2CCC(C(=O)NC(c3ccccc3)c3ccccc3)N2C1=O
2430 nM: IC50 (second compound 0.01 µM)
inactive: viability, T/C [3] 66.3% | viability, T/C [4] 73.2% | viability, T/C [5] 60.3% | viability, T/C [6] 70.3% | viability, T/C (second compound 0.01 µM, first compound 3.16 µM) 44.8% | viability, T/C (second compound 0.01 µM, first compound 10 µM) 27.5% | viability, T/C [9] 51.8% | viability, T/C [10] 52% | viability, T/C [11] 52.1% | viability, T/C [12] 43.9% | viability, T/C (second compound 0.0316 µM, first compound 3.16 µM) 41.9% | viability, T/C (second compound 0.0316 µM, first compound 10 µM) 20% | viability, T/C [15] 41% | viability, T/C [16] 46.4% | viability, T/C [17] 46.3% | viability, T/C [18] 39.1% | viability, T/C (second compound 0.1 µM, first compound 3.16 µM) 33.2% | viability, T/C (second compound 0.1 µM, first compound 10 µM) 19.8% | viability, T/C [21] 37.2% | viability, T/C [22] 38% | viability, T/C [23] 42.8% | viability, T/C [24] 35.8% | viability, T/C (second compound 0.316 µM, first compound 3.16 µM) 27.5% | viability, T/C (second compound 0.316 µM, first compound 10 µM) 14.3% | viability, T/C [27] 33.8% | viability, T/C [28] 39.4% | viability, T/C [29] 40.2% | viability, T/C [30] 31.8% | viability, T/C (second compound 1 µM, first compound 3.16 µM) 22.3% | viability, T/C (second compound 1 µM, first compound 10 µM) 13.6%
384 nM: IC50 (second compound 0.0316 µM)
< 31.6 nM: IC50 (second compound 0.1 µM) | IC50 (second compound 0.316 µM) | IC50 (second compound 1 µM)

O=C(c1ccc(F)c(F)c1Nc1ccc(I)cc1F)N1CC(O)([C@@H]2CCCCN2)C1 + CNC(C)C(=O)NC1CN(S(=O)(=O)c2cccc(S(=O)(=O)N3CCC4CCC(C(=O)NC(c5ccccc5)c5ccccc5)N4C(=O)C(NC(=O)C(C)NC)C3)c2)CCC2CCC(C(=O)NC(c3ccccc3)c3ccccc3)N2C1=O
927 nM: IC50 (second compound 0.0316 µM)
inactive: viability, T/C [1] 83.5% | viability, T/C [2] 75.5% | viability, T/C [3] 85.8% | viability, T/C [4] 96.7% | viability, T/C [5] 97.3% | viability, T/C [6] 62.9% | viability, T/C [7] 72.8% | viability, T/C [8] 68.3% | viability, T/C [9] 74.3% | viability, T/C [10] 93.1% | viability, T/C [11] 87.8% | viability, T/C [12] 47.9% | viability, T/C [13] 53.2% | viability, T/C [14] 61.4% | viability, T/C [15] 65.8% | viability, T/C [16] 87.5% | viability, T/C [17] 92.7% | viability, T/C [18] 59.9% | viability, T/C [19] 46.7% | viability, T/C [20] 60.3% | viability, T/C [21] 57.2% | viability, T/C [22] 67.5% | viability, T/C [23] 72.2% | viability, T/C [24] 58.3% | viability, T/C [25] 47.9% | viability, T/C [26] 52% | viability, T/C [27] 67.1% | viability, T/C [28] 66.3% | viability, T/C [29] 76.2% | viability, T/C [30] 46.7%
> 1000 nM: IC50 (second compound 0.01 µM) | IC50 (second compound 0.1 µM)
< 3.16 nM: IC50 (second compound 0.316 µM) | IC50 (second compound 1 µM)
